Our source for the IC50 values is patent US12391695B2, “PRMT5 inhibitors” (Lupin Limited, priority 2019, dated 2025).

The subject of one assay is Z-138 cells. Kind of assay: Anti-cancer assay (Z-138), cell viability by CellTiterGlo. The class given is cell-based. The settings on record: Homo sapiens, 96 h treatment, read-out: IC50 (activity range), inhibition of cell viability. The procedure:
Z-138 cells were seeded at a density of 2000-3000 cells per well in culture media (IMDM+10% FBS). PANC-1 (ATCC, CRL-1469™) and MIA PaCa-2 (ATCC, CRL-1420™) cells were seeded at a density of 200-300 cells per well in culture media (DMEM+10% FBS). Cells were seeded in opaque, flat bottomed tissue culture grade 96-well plates and Z-138 cells (suspension) were seeded and treated on the same day with various concentrations of test compounds. PANC-1 and MIA PaCa-2 cells, being adherent, were kept for overnight settlement at standard cell culture conditions (37° C., 5% CO2). On the following day, cells were treated with various concentrations of test compounds. Cells were treated with test compounds for a period of 96 h, 7 days and 10 days, for Z-138 cells, PANC-1 cells and MIA PaCa-2 cells, respectively. Cell viability was assessed using CellTiterGlo™ (Promega, USA) as per manufacturer's instructions. Relative Light Units (RLU) were read in Synergy™ 2 reader (Biotek, USA). The assay measures cellular ATP as an indicator of cell viability. RLU is proportional to the number of viable cells in the respective well. % inhibition of cell viability was calculated relative to the vehicle control samples containing media with 0.1% DMSO alone as per the formula below. (Avg. of Untreated Control−Avg. of Test)×100 Avg. Of Untreated Control
The IC50 values of individual compounds were calculated with Non Linear Regression Analysis using Graph Pad Prism (Graph Pad software, Inc, USA). • Anti-Cancer Assay (Z-138)

The next assay concerns the target PRMT5:MEP50 (Homo sapiens, UniProt O14744). Description: PRMT5 biochemical assay (HTRF, biotinylated H4R3 substrate), protocols 1 and 2. The settings on record: 1 μM SAM, 50 nM biotinylated H4R3, protocol 1 or 2 not given, read-out: IC50 (activity range), inhibition of PRMT5. The procedure:
(§1) Inhibitory effect of compounds on PRMT5 was assessed using HTRF detection technology in biochemical assay. Biotinylated H4R3 (residues 1-21) was used as a substrate. Compounds were pre-incubated with 15-25 ng PRMT5:MEP50 per well of a 384-well plate for 30 min at room temperature in the assay buffer containing 20 mM Bicine, pH 7.6, 25 mM NaCl, 2 mM DTT, 0.01% Chicken albumin and 0.01% Tween-20. Reaction was initiated by adding 1 μM of SAM and 50 nM biotinylated H4R3. Total assay volume was 15 μL. Reaction was continued for 120 min at room temperature. Then detection solution containing Streptavidin-Eu cryptate, anti-rabbit IgG-XL-665, Histone H4R3 Dimethyl Symmetric (H4R3me2s) Polyclonal Antibody, all prepared in HTRF detection buffer was added and further incubated for 30 min at room temperature. HTRF signal was recorded in PHERAStar microplate reader. Ratio of signal obtained at 665 nm and 620 nm was used to compute the percent inhibition of compound as follows % Inhibition=100−((Test Ratio−Negative control Ratio)/(Positive control Ratio−Negative control Ratio)*100) where Positive control=PRMT5+SAM+H4R3 Negative control=PRMT5+H4R3 Biochemical Assay Protocol 2
as §1, with “2.5” for “15-25”, “4 h” for “120 min”, “control=PRMT5+H4R3” for “control=PRMT5+H4R3 Biochemical Assay Protocol 2”
Background: Time-resolved FRET reads energy transfer from a long-lived donor to a nearby acceptor.

Another assay concerns SDMA. Description: SDMA inhibition assay in Z-138 cells (ELISA with anti-SDMA antibody). It is filed as cell-based. The following applies: Homo sapiens, Z-138, 48 h, 48 h treatment. As for the experimental part:
Z-138 cells (ATCC, CRL-3001™) were seeded at a density of 1 million cells/well in transparent, flat bottomed tissue culture grade 48-well plates. Cells were treated with various concentration of test compounds for a period of 48 h. Cell lysate was prepared using 1× CST Lysis buffer (Cell Signaling Technology, USA) and 500 ng/well/50 μL of lysate in pH 9.6 carbonate buffer was coated on 96-well Maxisorb plate and incubated overnight at 4° C. The plate was washed twice in 1×PBS containing 0.05% Tween 20 and blocked in 1% BSA for 1 h at ambient temperature. Further, the plate was incubated first with primary antibody (anti-SDMA antibody; CST #13222s) at ambient temperature for 2 h and then with HRP-conjugated secondary antibody at ambient temperature for 1 h with 2 intermittent washing steps in between.
For luminiscence based detection, HRP substrates (substrate A+substrate B in a 1:1 proportion) were added followed by luminiscence reading after 30 min in Synergy™ 2 reader (Biotek, USA).
For absorbance based detection, TMB substrate was added followed by addition of STOP solution (2N H2SO4) post colour development and absorbance (excitation 450 nm and emission 540 nm) was measured in Synergy™ 2 reader (Biotek, USA).
% inhibition of SDMA was calculated relative to the vehicle control samples containing media with 0.1% DMSO alone as per the formula below. (Avg. of Untreated Control−Avg. of Test)×100 Avg. Of Untreated Control
The IC50 values of individual compounds were calculated with Non Linear Regression Analysis using Graph Pad Prism (Graph Pad software, Inc, USA).
(In an ELISA, binding on a coated surface is turned into a signal by an enzyme label.)

[1] abbreviates: read-out: IC50 (activity range), SDMA inhibition.
Where [2] appears, read: range with mixed units pM/nM, units kept in the value.

The structures appear in SMILES notation. Read-outs that look alike come from different tables or passages of the source. Some results are limits rather than exact numbers.

PRMT5:MEP50, sequence (O14744 whole entry, the tested form may be a part): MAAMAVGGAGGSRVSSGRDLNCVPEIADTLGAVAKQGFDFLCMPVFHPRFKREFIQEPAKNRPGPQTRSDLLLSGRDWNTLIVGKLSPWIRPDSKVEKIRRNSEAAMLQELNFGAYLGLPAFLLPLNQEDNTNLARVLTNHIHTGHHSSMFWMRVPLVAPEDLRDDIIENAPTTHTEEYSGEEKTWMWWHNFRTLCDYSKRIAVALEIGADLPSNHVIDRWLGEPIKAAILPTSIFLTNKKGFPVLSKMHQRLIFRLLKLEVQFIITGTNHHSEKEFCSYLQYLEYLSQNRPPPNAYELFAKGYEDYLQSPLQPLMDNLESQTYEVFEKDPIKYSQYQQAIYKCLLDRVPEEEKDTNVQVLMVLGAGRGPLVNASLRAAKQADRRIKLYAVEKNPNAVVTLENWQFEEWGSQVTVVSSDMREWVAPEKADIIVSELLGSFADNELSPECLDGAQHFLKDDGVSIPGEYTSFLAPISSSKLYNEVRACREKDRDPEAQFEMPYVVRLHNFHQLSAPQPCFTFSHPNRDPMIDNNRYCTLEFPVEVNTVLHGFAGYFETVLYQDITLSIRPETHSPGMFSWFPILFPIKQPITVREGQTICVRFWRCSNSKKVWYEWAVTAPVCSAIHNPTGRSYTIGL
PRMT5:MEP50, sequence (Q9BQA1 whole entry partner, the tested form may be a part): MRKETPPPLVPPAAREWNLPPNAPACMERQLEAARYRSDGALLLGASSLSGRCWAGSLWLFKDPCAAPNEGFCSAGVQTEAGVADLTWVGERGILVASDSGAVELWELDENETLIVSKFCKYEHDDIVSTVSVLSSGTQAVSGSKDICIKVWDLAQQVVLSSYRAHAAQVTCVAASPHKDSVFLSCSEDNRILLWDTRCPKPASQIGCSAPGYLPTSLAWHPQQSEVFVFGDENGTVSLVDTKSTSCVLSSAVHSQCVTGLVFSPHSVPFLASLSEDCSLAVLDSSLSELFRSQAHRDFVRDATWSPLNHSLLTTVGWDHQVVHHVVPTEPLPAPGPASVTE

The IC50 is the midpoint of a concentration-inhibition curve. In the case of `Cc1cc2c(c(CCC3=C[C@@H](n4ccc5c(N)ncnc54)[C@H](O)[C@@H]3O)c1)CNCC2` [Compound 8, (1S,2R,5R)-5-(4-amino-7H-pyrrolo[2,3-d]pyrimidin-7-yl)-3-(2-(6-methyl-1,2,3,4-tetrahydroisoquinolin-8-yl)ethyl)cyclopent-3-ene-1,2-diol], the values for the half-maximal inhibitory concentration (IC50) in the assay with Z-138 cells, on PRMT5:MEP50 and in the assay on SDMA (setting [1]) were greater than 1000 pM, 0.25 to 0.95 nM and 1100 to 50000 pM, respectively.
The matching figures for `Nc1ncnc2c1ccn2[C@@H]1C=C(CCc2ccc(F)c3c2CNCC3)[C@@H](O)[C@H]1O` [Compound 9, (1S,2R,5R)-5-(4-amino-7H-pyrrolo[2,3-d]pyrimidin-7-yl)-3-(2-(5-fluoro-1,2,3,4-tetrahydroisoquinolin-8-yl)ethyl)cyclopent-3-ene-1,2-diol]: greater than 1000 pM, 0.25 to 0.95 nM and 1100 to 50000 pM.
`Nc1ncnc2c1ccn2[C@@H]1C=C(CCc2cc(C(F)F)cc3c2CNCC3)[C@@H](O)[C@H]1O` [Compound 10, (1S,2R,5R)-5-(4-amino-7H-pyrrolo[2,3-d]pyrimidin-7-yl)-3-(2-(6-(difluoromethyl)-1,2,3,4-tetrahydroisoquinolin-8-yl)ethyl)cyclopent-3-ene-1,2-diol]: the figures for the concentration for half-maximal inhibition (IC50) in the assay on Z-138 cells (setting [2]), on PRMT5:MEP50 and in the assay with SDMA (setting [2]) were 101 to 1000 pM, 0.25 to 0.95 nM and 100 to 1000 pM, respectively.
`Nc1ncnc2c1ccn2[C@@H]1C=C(CCc2ccc(C(F)F)c3c2CNCC3)[C@@H](O)[C@H]1O` [Compound 11, (1S,2R,5R)-5-(4-amino-7H-pyrrolo[2,3-d]pyrimidin-7-yl)-3-(2-(5-(difluoromethyl)-1,2,3,4-tetrahydroisoquinolin-8-yl)ethyl)cyclopent-3-ene-1,2-diol]: the half-inhibitory concentration (IC50) in the assay with Z-138 cells was greater than 1000 pM; on PRMT5:MEP50, 0.25 to 0.95 nM; in the assay on SDMA (setting [1]), 1100 to 50000 pM.
On to `Nc1ncnc2c1ccn2[C@@H]1C=C(COc2cc(C(F)F)c(F)c3c2CNCC3)[C@@H](O)[C@H]1O` [Compound 12, (1S,2R,5R)-5-(4-amino-7H-pyrrolo[2,3-d]pyrimidin-7-yl)-3-(((6-(difluoromethyl)-5-fluoro-1,2,3,4-tetrahydroisoquinolin-8-yl)oxy)methyl)cyclopent-3-ene-1,2-diol], for which the IC50 in the assay with Z-138 cells is greater than 1000 pM; at PRMT5:MEP50 it was 0.25 to 0.95 nM; in the assay with SDMA (setting [1]), 1100 to 50000 pM.
As for `Nc1ncnc2c1ccn2[C@@H]1C=C(CCc2cc(C(F)F)c(F)c3c2CNCC3)[C@@H](O)[C@H]1O` [Compound 13, (1S,2R,5R)-5-(4-amino-7H-pyrrolo[2,3-d]pyrimidin-7-yl)-3-(2-(6-(difluoromethyl)-5-fluoro-1,2,3,4-tetrahydroisoquinolin-8-yl)ethyl)cyclopent-3-ene-1,2-diol], the half-maximal inhibitory concentration (IC50) in the assay on Z-138 cells (setting [2]) was in the range of 101 to 1000 pM; on PRMT5:MEP50, 0.25 to 0.95 nM; in the assay on SDMA (setting [1]), 1100 to 50000 pM.
For the compound `Cc1ncnc2c1ccn2[C@@H]1C=C(CCc2cc(C(F)F)cc3c2CNCC3)[C@@H](O)[C@H]1O` [Compound 14, (1S,2R,5R)-3-(2-(6-(difluoromethyl)-1,2,3,4-tetrahydroisoquinolin-8-yl)ethyl)-5-(4-methyl-7H-pyrrolo[2,3-d]pyrimidin-7-yl)cyclopent-3-ene-1,2-diol], the 50% inhibitory concentration (IC50) in the assay with Z-138 cells (setting [2]) was 101 to 1000 pM; on PRMT5:MEP50 it was 0.25 to 0.95 nM; with SDMA (setting [1]), 1100 to 50000 pM.
As for `Cc1ncnc2c1ccn2[C@@H]1C=C(CCc2cc(C(F)F)c(F)c3c2CNCC3)[C@@H](O)[C@H]1O` [Compound 15, (1S,2R,5R)-3-(2-(6-(difluoromethyl)-5-fluoro-1,2,3,4-tetrahydroisoquinolin-8-yl)ethyl)-5-(4-methyl-7H-pyrrolo[2,3-d]pyrimidin-7-yl)cyclopent-3-ene-1,2-diol], the 50% inhibitory concentration (IC50) with Z-138 cells (setting [2]) lay in the range of 101 to 1000 pM; on PRMT5:MEP50 it was 0.25 to 0.95 nM; with SDMA (setting [2]) it was 100 to 1000 pM.
Turning to `Nc1cc(=O)n([C@@H]2C=C(COc3cc(F)c4cc(Cl)c(N)nc4c3)[C@@H](O)[C@H]2O)cn1` [Compound 17, 6-amino-3-((1R,4R,5S)-3-(((2-amino-3-chloro-5-fluoroquinolin-7-yl)oxy)methyl)-4,5-dihydroxycyclopent-2-en-1-yl)pyrimidin-4 (3H)-one], the concentration for half-maximal inhibition (IC50) in the assay with Z-138 cells is greater than 1000 pM; at PRMT5:MEP50, 0.25 to 0.95 nM; with SDMA (setting [1]) it was 1100 to 50000 pM.
Taken in the same sequence, the figures for `Cc1cc(=O)n([C@@H]2C=C(COc3cc(F)c4cc(Cl)c(N)nc4c3)[C@@H](O)[C@H]2O)cn1` [Compound 18, 3-((1R,4R,5S)-3-(((2-amino-3-chloro-5-fluoroquinolin-7-yl)oxy)methyl)-4,5-dihydroxycyclopent-2-en-1-yl)-6-methylpyrimidin-4 (3H)-one] were greater than 1000 pM, greater than 0.95 nM and 1100 to 50000 pM.
With `Nc1nc2cc(OCC3=C[C@@H](n4cnc(N)c(F)c4=O)[C@H](O)[C@@H]3O)cc(F)c2cc1Cl` [Compound 19, 6-amino-3-((1R,4R,5S)-3-(((2-amino-3-chloro-5-fluoroquinolin-7-yl)oxy)methyl)-4,5-dihydroxycyclopent-2-en-1-yl)-5-fluoropyrimidin-4 (3H)-one], the results for the 50% inhibitory concentration (IC50) in the assay on Z-138 cells, on PRMT5:MEP50 and with SDMA (setting [2]) were greater than 1000 pM, greater than 0.95 nM and 100 to 1000 pM, respectively.
For `Nc1ncnc2c1ccn2[C@@H]1C=C(CCc2cc(Cl)c(F)c3c2CNCC3)[C@@H](O)[C@H]1O` [Compound 20, (1S,2R,5R)-5-(4-amino-7H-pyrrolo[2,3-d]pyrimidin-7-yl)-3-(2-(6-chloro-5-fluoro-1,2,3,4-tetrahydroisoquinolin-8-yl)ethyl)cyclopent-3-ene-1,2-diol], the IC50 with Z-138 cells was greater than 1000 pM; on PRMT5:MEP50 it was 0.25 to 0.95 nM; in the assay with SDMA (setting [1]) it was 1100 to 50000 pM.
As to `Nc1ncnc2c1ccn2[C@@H]1C=C(CCc2cc(F)c(F)c3c2CNCC3)[C@@H](O)[C@H]1O` [Compound 21, (1S,2R,5R)-5-(4-amino-7H-pyrrolo[2,3-d]pyrimidin-7-yl)-3-(2-(5,6-difluoro-1,2,3,4-tetrahydroisoquinolin-8-yl)ethyl)cyclopent-3-ene-1,2-diol], the IC50 in the assay on Z-138 cells (setting [2]) fell in the range of 101 to 1000 pM; on PRMT5:MEP50, 0.25 to 0.95 nM; with SDMA (setting [1]) it was 1100 to 50000 pM.
